The Dmax is the greatest extent of degradation seen. A lower Dmax goes with a partial loss of target.

One experiment has as its target T1, MycN Protein (Homo sapiens, UniProt P04198).
T1 construct: endogenous in cells; host or cells: HL-60 or SKNBE2
T1 sequence (P04198 1-464): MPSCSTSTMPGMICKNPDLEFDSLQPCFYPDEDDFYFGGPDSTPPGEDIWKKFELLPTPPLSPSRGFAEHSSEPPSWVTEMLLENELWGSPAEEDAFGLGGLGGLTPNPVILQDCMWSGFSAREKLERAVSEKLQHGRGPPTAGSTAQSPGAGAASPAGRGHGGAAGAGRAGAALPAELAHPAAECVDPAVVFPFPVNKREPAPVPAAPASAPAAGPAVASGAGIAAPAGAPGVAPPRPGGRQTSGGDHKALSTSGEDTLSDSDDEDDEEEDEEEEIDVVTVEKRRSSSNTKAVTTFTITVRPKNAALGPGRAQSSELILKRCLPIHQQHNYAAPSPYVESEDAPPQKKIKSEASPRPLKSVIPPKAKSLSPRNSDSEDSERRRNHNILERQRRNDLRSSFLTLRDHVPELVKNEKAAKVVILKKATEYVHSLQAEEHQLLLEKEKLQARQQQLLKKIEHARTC
The experiment can be described thus: Degradation of MycN protein, Western blot band density in cells. In kind it is cell-based. As to conditions: HL-60 or SKNBE2 cells; 6 uL of compound (1 mM) added to 3 mL cells; 6 hours; Western blot band density (ImageJ). In outline:
(§1)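 HL-60 leukemia or SKNBE2 neuroblastoma cells (3×10^6 per well, passages below 40) were exposed for 6 h to compound added from a 1 mM stock. RIPA lysates (25-30 ug protein) were run on SDS-PAGE and immunoblotted for c-Myc or MycN. Band density was quantified from the western images.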

In another experiment the target is T2, MycC Protein (Homo sapiens, UniProt P01106).
T2 construct: endogenous in cells; host or cells: HL-60 or SKNBE2
Put plainly: Degradation of MycC protein, Western blot band density in cells. It is filed as cell-based. As to conditions: HL-60 or SKNBE2 cells; 6 uL of compound (1 mM) added to 3 mL cells; 6 hours; Western blot band density (ImageJ). In outline: as §1
(In general: Immunoblotting shows a protein as a band on a membrane.)

T2 sequence (P01106 whole entry): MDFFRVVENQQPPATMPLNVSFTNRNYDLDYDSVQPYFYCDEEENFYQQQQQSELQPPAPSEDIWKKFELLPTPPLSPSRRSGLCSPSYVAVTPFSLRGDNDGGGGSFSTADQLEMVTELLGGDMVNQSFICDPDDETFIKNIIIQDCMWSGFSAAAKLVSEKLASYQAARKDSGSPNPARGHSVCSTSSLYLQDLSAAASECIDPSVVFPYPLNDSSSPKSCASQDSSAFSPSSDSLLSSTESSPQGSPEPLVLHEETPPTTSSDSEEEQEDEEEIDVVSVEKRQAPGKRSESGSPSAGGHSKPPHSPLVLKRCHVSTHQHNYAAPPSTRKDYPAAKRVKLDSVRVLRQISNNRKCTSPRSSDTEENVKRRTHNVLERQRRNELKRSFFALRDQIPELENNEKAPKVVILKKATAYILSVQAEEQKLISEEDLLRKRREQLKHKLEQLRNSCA

For `O=C(NC1CCN(Cc2ccccn2)CC1)N[C@H]1CC[C@H](Nc2nccc(Nc3cc(C4CCOC4)[nH]n3)n2)CC1` (stereo partly drawn) [Compound 74, 1-(1-(pyridin-2-ylmethyl)piperidin-4-yl)-3-((1R,4R)-4-((4-((5-(tetrahydrofuran-3-yl)-1H-pyrazol-3-yl)amino)pyrimidin-2-yl)amino)cyclohexyl)urea], the Dmax at 2 µM at MycN Protein was 20 to 49%; on MycC Protein it was less than 20%.
Take `O=C(NC1CCN(Cc2ncccn2)CC1)N[C@H]1CC[C@H](Nc2nccc(Nc3cc(C4CCCC4)[nH]n3)n2)CC1` [Compound 75]: the Dmax at 2 µM is less than 20% at MycN Protein and 20 to 49% at MycC Protein.
In the same order, the values of `O=C(NC1CCC(Nc2nccc(Nc3cc(C4CCCC4)[nH]n3)n2)CC1)NC1CC2(C1)CN(C1CC1)C2` [Compound 77, 1-((1R,4R)-4-((4-((5-cyclopentyl-1H-pyrazol-3-yl)amino)pyrimidin-2-yl)amino)cyclohexyl)-3-(2-cyclopropyl-2-azaspiro[3.3]heptan-6-yl)urea] are less than 20% and 20 to 49%.
On the same counts, the results for `O=C(NC1CCC(Nc2nccc(Nc3cc(C4CCCC4)[nH]n3)n2)CC1)NC1CCN(C2CC2)C1` [Compound 79, 1-((1R,4R)-4-((4-((5-cyclopentyl-1H-pyrazol-3-yl)amino)pyrimidin-2-yl)amino)cyclohexyl)-3-(1-cyclopropylpyrrolidin-3-yl)urea] are less than 20% and 20 to 49%.
`[H]/N=C(\Nc1cccc(C(F)(F)F)c1)N[C@H]1CC[C@H](Nc2nccc(Nc3cc(C4CCCC4)[nH]n3)n2)CC1` [Compound 81, 1-((1R,4R)-4-((4-((5-cyclopentyl-1H-pyrazol-3-yl)amino)pyrimidin-2-yl)amino)cyclohexyl)-3-(3-(trifluoromethyl)phenyl)guanidine]: the Dmax at 2 µM on MycN Protein is less than 20%; at MycC Protein, 80 to 100%.
As for `C/N=C(\Nc1cccc(C(F)(F)F)c1)N[C@H]1CC[C@H](Nc2nccc(Nc3cc(C4CCCC4)[nH]n3)n2)CC1` [Compound 83], the Dmax at 2 µM at MycN Protein and on MycC Protein was less than 20% each time.
As to `FC(F)(F)C/N=C(\NC1CCOCC1)N[C@H]1CC[C@H](Nc2nccc(Nc3cc(C4CCCC4)[nH]n3)n2)CC1` [Compound 84], the Dmax at 2 µM on MycN Protein and at MycC Protein was less than 20% throughout.
For `N#Cc1cccc(NC(=N)N[C@H]2CC[C@H](Nc3nccc(Nc4cc(C5CCCC5)[nH]n4)n3)CC2)c1` [Compound 87, 1-(3-cyanophenyl)-3-((1R,4R)-4-((4-((5-cyclopentyl-1H-pyrazol-3-yl)amino)pyrimidin-2-yl)amino)cyclohexyl)guanidine], the “% Degradation of MycN” value on MycN Protein is “** (**: degradation 20-49%)”. Also, the “% Degradation of MycC” value at MycC Protein is reported as “** (**: degradation 20-49%)”.
For the compound `O=C(Nc1cccc(C(F)(F)F)c1)N[C@H]1C[C@H](Nc2nccc(Nc3cc(C4CCCC4)[nH]n3)n2)C1` [Compound 96], the greatest degradation seen (Dmax) at 2 µM at MycN Protein and on MycC Protein was 20 to 49% in each case.
As for `O=C(NC1Cc2ccncc2C1)N[C@H]1CC[C@H](Nc2nccc(Nc3cc(C4CCCC4)[nH]n3)n2)CC1` (stereo partly drawn) [Compound 101, 1-((1R,4R)-4-((4-((5-cyclopentyl-1H-pyrazol-3-yl)amino)pyrimidin-2-yl)amino)cyclohexyl)-3-(6,7-dihydro-5H-cyclopenta[c]pyridin-6-yl)urea], the Dmax at 2 µM on MycN Protein is less than 20%; at MycC Protein it was 80 to 100%.
As for `O=C(NC1CC(c2ccccc2)C1)N[C@H]1CC[C@H](Nc2nccc(Nc3cc(C4CCOC4)[nH]n3)n2)CC1` (stereo partly drawn) [Compound 102, 1-((1R,3R)-3-phenylcyclobutyl)-3-((1,4R)-4-((4-((5-(tetrahydrofuran-3-yl)1H-pyrazol-3-yl)amino)pyrimidine-2-yl)amino)cyclohexyl)urea], the Dmax at 2 µM on MycN Protein and on MycC Protein was less than 20% throughout.
`Cc1cc(Nc2ccnc(N[C@H]3CC[C@H](NC(=O)NC4CCN(C(=O)C5CC5)CC4)CC3)n2)n[nH]1` [Compound 103, 1-(1-(cyclopropanecarbonyl)piperidin-4-yl)-3-((1R,4R)-4-((4-((5-methyl-1H-pyrazol-3-yl)amino)pyrimidin-2-yl)amino)cyclohexyl)urea]: the Dmax at 2 µM on MycN Protein and on MycC Protein was less than 20% in each case.
For the compound `Cc1cc(Nc2ccnc(N[C@H]3CC[C@H](NC(=O)N[C@@H]4CCC[C@H](C(F)(F)F)C4)CC3)n2)n[nH]1` [Compound 104, 1-((1R,4R)-4-((4-((5-methyl-1H-pyrazol-3-yl)amino)pyrimidin-2-yl)amino)cyclohexyl)-3-((1R,3S)-3-(trifluoromethyl)cyclohexyl)urea], the Dmax at 2 µM was 20 to 49% at MycN Protein and less than 20% on MycC Protein.
As for `CO[C@H]1c2ccccc2C[C@H]1NC(=O)N[C@H]1CC[C@H](Nc2nccc(Nc3cc(C)[nH]n3)n2)CC1` [Compound 105, 1-((1S,2R)-1-methoxy-2,3-dihydro-1H-inden-2-yl)-3-((1R,4R)-4-((4-((5-methyl-1H-pyrazol-3-yl)amino)pyrimidin-2-yl)amino)cyclohexyl)urea], the Dmax at 2 µM on MycN Protein and on MycC Protein was less than 20% each time.
In the case of `CN1CC(NCc2ccc3c(c2)CC(NC(=O)N[C@H]2CC[C@H](Nc4nccc(Nc5cc(C6CCCC6)[nH]n5)n4)CC2)C3)C1` (some centres unmarked) [Compound 107], the results for the Dmax at 2 µM on MycN Protein and at MycC Protein were less than 20% and 50 to 79%, respectively.
For `C/N=C(\Nc1cccc(C(F)(F)F)c1)N[C@H]1CC[C@H](Nc2nccc(Nc3cc(C)[nH]n3)n2)CC1` [Compound 112], the Dmax at 2 µM on MycN Protein and on MycC Protein was less than 20% throughout.
In the case of `Cc1cc(Nc2ccnc(N[C@H]3CC[C@H](NC(=O)NC4Cc5ccc(S(C)(=O)=O)cc5C4)CC3)n2)n[nH]1` (some centres unmarked) [Compound 115], the Dmax at 2 µM at MycN Protein and at MycC Protein was less than 20% throughout.
Turning to `O=C(N[C@@H]1CCC[C@@H](C(F)(F)F)C1)N[C@H]1CC[C@H](Nc2nccc(Nc3cc(C4CCCC4)[nH]n3)n2)CC1` [Compound 119], the Dmax at 2 µM at MycN Protein and on MycC Protein was less than 20% throughout.
With `Cc1cc(Nc2ccnc(N[C@H]3CC[C@H](NC(=O)N[C@@H]4CCC[C@@H](C(F)(F)F)C4)CC3)n2)n[nH]1` [Compound 120], the Dmax at 2 µM on MycN Protein and at MycC Protein was less than 20% each time.
Regarding `CN(c1nccc(Nc2cc(C3CCCC3)[nH]n2)n1)C1CCC(NC(=O)N[C@H]2CCC[C@@H](C(F)(F)F)C2)CC1` (stereo partly drawn) [Compound 121 (Fraction 1), 1-((1R,4S)-4-((4-((5-cyclopentyl-1H-pyrazol-3-yl)amino)pyrimidin-2-yl)(methyl)amino)cyclohexyl)-3-((1S,3R)-3-(trifluoromethyl)cyclohexyl)urea], the “% Degradation of MycN” value at MycN Protein is “*** (***: degradation 50-79%)”. In addition, on MycC Protein, the “% Degradation of MycC” value is given as “*** (***: degradation 50-79%)”.
With `CN(c1nccc(Nc2cc(C3CCCC3)[nH]n2)n1)C1CCC(NC(=O)N[C@H]2CCC[C@@H](C(F)(F)F)C2)CC1` (stereo partly drawn) [Compound 121 (Fraction 2), 1-((1R,4S)-4-((4-((5-cyclopentyl-1H-pyrazol-3-yl)amino)pyrimidin-2-yl)(methyl)amino)cyclohexyl)-3-((1S,3R)-3-(trifluoromethyl)cyclohexyl)urea], the “% Degradation of MycN” value at MycN Protein is “*** (***: degradation 50-79%)”. Also, at MycC Protein, the “% Degradation of MycC” value was “** (**: degradation 20-49%)”.
Regarding `CN(c1nccc(Nc2cc(C3CC3)[nH]n2)n1)[C@H]1CC[C@H](NC(=O)NC2Cc3ccc(C#N)cc3C2)CC1` (stereo partly drawn) [Compound 142, 1-(5-cyano-2,3-dihydro-1H-inden-2-yl)-3-((1R,4R)-4-((4-((5-cyclopropyl-1H-pyrazol-3-yl)amino)pyrimidin-2-yl)(methyl)amino)cyclohexyl)urea], the Dmax at 2 µM at MycN Protein and on MycC Protein was 80 to 100% throughout.
As to `CN(C(=O)NC1Cc2ccc(C#N)cc2C1)[C@H]1CC[C@H](N(C)c2nccc(Nc3cc(C4CCCC4)[nH]n3)n2)CC1` (stereo partly drawn) [Compound 143, 3-(5-cyano-2,3-dihydro-1H-inden-2-yl)-1-((1R,4R)-4-((4-((5-cyclopentyl-1H-pyrazol-3-yl)amino)pyrimidin-2-yl)(methyl)amino)cyclohexyl)-1-methylurea], the Dmax at 2 µM on MycN Protein and on MycC Protein was 50 to 79% each time.
Turning to `CN(c1nccc(Nc2cc(C3CCC3)[nH]n2)n1)[C@H]1CC[C@H](NC(=O)NC2Cc3ccc(C#N)cc3C2)CC1` (stereo partly drawn) [Compound 144, 1-(5-cyano-2,3-dihydro-1H-inden-2-yl)-3-((1R,4R)-4-((4-((5-cyclobutyl-1H-pyrazol-3-yl)amino)pyrimidin-2-yl)(methyl)amino)cyclohexyl)urea], the greatest degradation seen (Dmax) at 2 µM lay in the range of 50 to 79% at MycN Protein and 80 to 100% at MycC Protein.
On the same counts, the results for `CN(c1nccc(Nc2cc(C3CC(F)(F)C3)[nH]n2)n1)[C@H]1CC[C@H](NC(=O)NC2Cc3ccc(C#N)cc3C2)CC1` (stereo partly drawn) [Compound 145, 1-(5-cyano-2,3-dihydro-1H-inden-2-yl)-3-((1R,4R)-4-((4-((5-(3,3-difluorocyclobutyl)-1H-pyrazol-3-yl)amino)pyrimidin-2-yl)(methyl)amino)cyclohexyl)urea] are 80 to 100% and 50 to 79%.

The record behind these values is patent US20210369710A1, “MODULATORS OF MYC FAMILY PROTO-ONCOGENE PROTEIN” (Nalo Therapeutics, priority 2019, published 2021).
